Measured values from patent US5246957A, “N-imidazolyl derivatives of substituted indole” (Farmitalia Carlo Erba S.r.l., priority 1991, dated 1993).
Like-named read-outs stand apart in the source and are kept apart here.

Columns and labels:
[1] = tested on: TxB2 synthesis; assay: TxB2 Synthesis Inhibition in vitro, in whole blood of normal rats; type: cell-based, Sprague Dawley rats; conditions: Rattus norvegicus, read-out: In vitro effect on TxB2 synthesis in normal rats, IC50 (whole blood)
Experimental: (§1) The effects of a representative group of compounds of the invention were evaluated, in comparison with known compounds, on TxB2 synthesis inhibition in vitro, in whole blood of normal rats, and on TxA2 antagonism in a binding assay in washed human platelets.
TxB2 Synthesis Inhibition
Blood was withdrawn from the abdominal aorta of normal Sprague Dawley rats (Charles River Italy) under light ether anaestesia. The blood was immediately divided in portions of 0.5 ml and distributed in glass tubes each containing a concentration of the test compound, or of the reference compounds.
Samples were then allowed to clot for 1 hour at 37° C., centrifuged at 3000 rpm for 10 min, and serum collected and stored at -20° C. until assayed.

[2] = target: T1, TxA2 receptor (Homo sapiens, UniProt P21731); assay: Displacement of [^3 H]-SQ 29,548 Binding to Washed Human Platelets; conditions: for affinity for the receptor compared with reference standards: versus BM 13505 and BM 13177; for IC50: washed human platelets, [^3 H]-SQ 29,548 5 nM, 30 min at 25° C., pH 7.4, n = 3, read-out: ^3 H SQ 29548 binding displacement (washed human platelet) IC50
T1 construct: endogenous in cells; host or cells: washed platelets from blood of healthy human volunteers
T1 sequence (P21731 1-343): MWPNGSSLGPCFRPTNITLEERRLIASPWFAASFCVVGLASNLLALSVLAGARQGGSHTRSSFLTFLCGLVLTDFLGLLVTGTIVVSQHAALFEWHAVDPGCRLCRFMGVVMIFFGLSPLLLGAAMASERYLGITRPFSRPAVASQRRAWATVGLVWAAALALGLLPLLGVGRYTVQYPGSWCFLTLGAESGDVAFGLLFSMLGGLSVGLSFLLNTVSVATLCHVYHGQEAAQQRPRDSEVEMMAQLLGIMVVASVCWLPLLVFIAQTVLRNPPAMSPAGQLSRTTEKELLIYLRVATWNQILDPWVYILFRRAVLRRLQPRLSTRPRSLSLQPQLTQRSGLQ
Experimental: as §1
Displacement of [^3 H]-SQ 29,548 Binding to Washed Human Platelets
Blood from healthy volunteers of both sexes who had not taken any medication for at least 10 days was collected into one-tenth volume of acid citrate dextrose containing indomethacin (28 μM). Platelet rich plasma (PRP), obtained by centrifugation of the blood at 200× g for 20 min, was washed twice (1000× g for 10 min). The platelets were then resuspended in Tyrode-Hepes buffer (pH 7.4) to a final concentration of […] and incubated for 0-60 min at 25° with [^3 H]-SQ 29,548 (5 nM). For displacement experiments various concentrations (10^-9 -10^-4 M) of competing ligands were added and incubated for 30 min at 25° C. […] After the incubation, 4 ml of ice-cold TRIS-HCl buffer ( 10 mM, pH 7.4) was added to each tube and the reaction mixture was immediately filtered by suction through a Whatman GF/C glass filter disc which was washed 2 times with ice-cold TRIS-HCl (4 ml) and counted for radioactivity by a Packard β-counter.
The binding data were analysed by computerized non-linear curve fitting using the Ligand program and expressed as IC50.

[3] = whole blood of normal rats, clotted 1 hour at 37° C., TxB2 by RIA

Row | IC50 [2] [µM] | SMILES | IC50 ([1]; 1 h) [µM] | IC50 [1, 3] [µM] | affinity for the receptor compared with reference standards [2]
1 |  | CC(=O)Oc1ccccc1C(=O)O [ASA, acetylsalicilic acid] | 31 |  | 
2 |  | O=C(O)c1ccc(OCCn2ccnc2)cc1 [Dazoxiben, dazoxiben] |  | 1.2 | 
3 | 0.0329 | Cc1c(CCC(=O)O)n(Cc2ccc(-n3ccnc3)cc2)c2ccc(F)cc12 [FCE 27005, 5-Fluoro-1-[[4-(1H-imidazol-1-yl)phenyl]methyl]-3-methyl-1H-indole-2-propanoic acid] |  |  | affinity for the receptor greater than those of compounds BM 13505 and BM 13177
4 | 0.0119 | Cc1c(CCCC(=O)O)n(Cc2ccc(-n3ccnc3)cc2)c2ccc(F)cc12 [FCE 27093, 5-Fluoro-1-[[4-(1H-imidazol-1-yl)phenyl]methyl]-3-methyl-1H-indole-2-butanoic acid] |  | 1.19 | affinity for the receptor greater than those of compounds BM 13505 and BM 13177
